Results published in article PMC10224329, “Design, Synthesis, and Antiproliferative Activity of Benzopyran-4-One-Isoxazole Hybrid Compounds” (Molecules, 2023).

Columns and labels:
[1] = system: panel of cancer cell lines (CCRF-CEM, SKOV-3, MDA-MB-231, PC-3, DU-145, iSLK); assay: MTS cell viability assay, summary over the cancer cell line panel; format: cell-based; details: Homo sapiens; range over CCRF-CEM, MDA-MB-231, PC3, DU-145; read-out: IC50 against all the cancer cell lines (range)
Experimental: (§1) All the 14 hybrid compounds synthesized via Scheme 1, along with the intermediates and starting compounds, were tested in vitro for their cytotoxicity against a panel of 6 human cancer cell lines. This panel involved human leukemia carcinoma (CCRF-CEM), human ovarian adenocarcinoma (SKOV-3), human breast tumor (MDA-MB-231), human prostate cancer (PC-3), androgen-independent human prostate cancer (DU-145), and human renal carcinoma (iSLK) cell lines. The compounds were tested at a concentration of 25 μM for incubation periods of 24 and 72 h. Standard anticancer drug doxorubicin at a concentration of 5 μM and DMSO were used as controls in all the cell assays. The antiproliferative profile of benzopyran-4-one-isoxazole conjugates is shown in Figure 2 (cf. Supplementary Materials for the data obtained for intermediates and starting materials Figure S28.1–S28.6, page no. 71–76).
(§2) Cell viability assays were performed using the MTS protocol. The in vitro cytotoxicity of the conjugates was evaluated using six human cancer cell lines, one human normal kidney cell line, and one mammalian normal kidney cell line, which included human leukemia carcinoma cell lines (CCRF-CEM), human ovarian adenocarcinoma cell lines (SKOV-3), human breast tumor cell lines (MDA-MB-231), human prostate cancer cell lines (PC-3), androgen-independent human prostate cancer cell lines (DU-145), human renal carcinoma (iSLK), human embryonic kidney cell lines (HEK-293), and normal mammalian kidney cell line (LLCPK) to determine the toxicity of the synthesized conjugates. CCRF-CEM cells were seeded at 50,000 cells in 0.1 mL per well in 96-well plates, and in the case of SKOV-3, MDA-MB-231, PC-3, DU-145, HEK-293, and LLCPK cell lines, the cells were seeded at 5000 cells in 0.1 mL per well in 96-well plates. The CCRF-CEM cells were seeded in RPMI-1640 media containing 2mM L-glutamine, 1.5 g/L sodium bicarbonate, supplemented with fetal bovine serum (FBS) 10% media, SKOV-3, MDA-MB-231, and LLCPK cells were seeded in MEME media with Earle’s salts and sodium bicarbonate, without L-glutamine, supplemented with fetal bovine serum (FBS) 10%, PC-3 cells were seeded in DMEM:F-12 containing 1:1 mixture with L-glutamine with HEPES, supplemented with fetal bovine serum (FBS) 10%, and DU-145 and HEK-293 cells were seeded in DMEM containing 4500 mg/L glucose, L-glutamine, and sodium bicarbonate, without sodium pyruvate, supplemented with FBS (10%), 24 h prior to the experiment. The compounds at a final concentration of 25 µM (higher concentration stock solution prepared in DMSO) were added to each well in triplicate and incubated for 24 and 72 h at 37 °C in a humidified atmosphere (95% air and 5% CO2). The cell viability was then determined by measuring the absorbance of the formazan product at 490 nm using a microplate reader using a SpectraMax M2 microplate spectrophotometer, Molecular Devices, San Jose, CA, USA. The percentage of cell survival was calculated as [(OD value of cells treated with the test mixture of compounds) − (OD value of culture medium)]/[(OD value of control cells) − (OD value of culture medium)] × 100%. IC50 values of compounds were calculated using non-linear regression analysis in GraphPad Prism (Boston, MA, USA).

[2] = system: human embryonic kidney (HEK-293) cell lines; assay: MTS cell viability assay, non-cancerous cells; format: cell-based; details: for IC50: average of three independent tests in triplicate; for inhibition at 25 µM: HEK293, conjugates at 25 μM, 72 h
Description: (§3) The compounds were further screened for their in vitro cytotoxicity against non-cancerous normal cell lines, viz., human embryonic kidney (HEK-293) and normal pig kidney (LLCPK) cell lines. These cell lines were selected to determine whether the compounds had selectivity against cancerous cells in contrast to non-cancerous cells. The data obtained is shown in Figure 3a–b (cf. Supplementary Materials for the data obtained for intermediates and starting materials Figure S28.7–S28.8, page no. 77–78).
as §2

[3] = system: human renal carcinoma (iSLK) cell lines; assay: MTS cell viability assay; format: cell-based; details: 72 h; for inhibition at 25 µM: Homo sapiens, conjugates at 25 μM, read-out: Inhibition of Cancer Cell Lines iSLK
Experimental: as §1, §2

[4] = system: human breast tumor (MDA-MB-231) cell lines; assay: MTS cell viability assay; format: cell-based; details: for IC50: average of three independent tests in triplicate; for inhibition at 25 µM: conjugates at 25 μM
Experimental: as §1, §2

[5] = system: human leukemia carcinoma (CCRF-CEM) cell lines; assay: MTS cell viability assay; format: cell-based; details: for inhibition at 25 µM: conjugates at 25 μM; for IC50: average of three independent tests in triplicate
Experimental: as §1, §2

[6] = system: human prostate cancer (PC-3) cell lines; assay: MTS cell viability assay; format: cell-based; details: for IC50: PC3, average of three independent tests in triplicate; for inhibition at 25 µM: conjugates at 25 μM
Experimental: as §1, §2

[7] = system: androgen-independent human prostate cancer (DU-145) cell lines; assay: MTS cell viability assay; format: cell-based; details: for IC50: average of three independent tests in triplicate; for inhibition at 25 µM: conjugates at 25 μM
Experimental: as §1, §2

[8] = system: human ovarian adenocarcinoma (SKOV-3) cell lines; assay: MTS cell viability assay; format: cell-based; details: 72 h, read-out: Inhibition of Cancer Cell Lines SKOV-3; for inhibition at 25 µM: SK-OV-3, conjugates at 25 μM
Experimental: as §1, §2

[9] = system: normal pig kidney (LLCPK) cell lines; assay: MTS cell viability assay, non-cancerous cells; format: cell-based; details: Sus scrofa, 72 h
Description: as §3, §2

[10] = molecular target: phosphatidylinositol 3-kinase (PI3K); design: method as in PMID 8106507; details: cellular; cited from earlier work
[11] = system: human embryonic kidney (HEK-293) cell lines; assay: MTS cell viability assay, non-cancerous cells; format: cell-based; details: HEK293, Dox at 5 μM, 72 h
MDA-MB-231 cells = assay: Annexin V-FITC/PI apoptosis assay by flow cytometry; format: cell-based, human; details: MDA-MB-231, 5 μM, 72 h
Experimental: In accordance with the MTS assay, compound 5a had promising antiproliferative action. Therefore, we attempted to study the mechanism triggering cell death. […] MDA-MB-231 cells were treated with 5 μM of compound 5a and Dox (5 μM) as a positive control and incubated for 72 h, then double-stained carefully by membrane-linked protein Annexin-V fluorescein isothiocyanate (FITC) and propidium iodide (PI) for flow cytometry analysis. Normally, in the early stages of apoptosis, phosphatidylserine flips from the inner cell membrane to the surface of the cell membrane. […] PI is a nucleic acid dye that can only cross the membrane of advanced apoptosis and necrotic cells and redden the nucleus. Consequently, when the treated cells are double stained by the two fluorescent dyes, early and late apoptosis and necrotic cells can be clearly distinguished. […] These findings illustrated that compound 5a mainly leads to the early apoptosis of MDA-MB-231 cells.
The assay was detected using a commercially available kit (FITC Annexin V Apoptosis Detection Kit II, BD Biosciences, San Jose, CA, USA) per the manufacturer’s instructions. Briefly, MDA-MB-231 cells were seeded in 6-well plates at a concentration of 1 × 10^6 cells/well for 24 h; after that, cells were treated with 5a (5 µM) for 72 h. Dox (5 µM) was used as a positive control. After the treatment period, cells were washed with cold phosphate-buffered saline (PBS) twice. The cells were collected after trypsin treatment and centrifugated to get a pellet, and a binding buffer (1X) was used to resuspend the cells. Annexin V (5 μL) and propidium iodide (PI) (5 μL) were mixed with 100 μL of the suspended cells (1 × 10^6 cells/mL), followed by 15 min incubation at room temperature in the dark. The mixture was diluted by adding 400 μL of 1× binding buffer, and the cells were analyzed using flow cytometry, FACS Verse (BD Biosciences, USA). The experiment was repeated three times independently.

[12] = Homo sapiens, HEK293, normal HEK-293 cells
[13] = 72 h, read-out: Inhibition of Cancer Cell Lines MDA-MB-231
[14] = Homo sapiens, CCRF-CEM, 72 h, read-out: Inhibition of Cancer Cell Lines CCRF-CEM

Row | SMILES | IC50 [1] [µM] | IC50 [4] [µM] | IC50 ([5]; Homo sapiens, CCRF-CEM) [µM] | IC50 [6] [µM] | IC50 [7] [µM] | IC50 [2, 12] [µM] | inhibition at 25 µM ([2]; Homo sapiens) [%] | IC50 ([2]; normal HEK-293 cells) [µM] | inhibition at 25 µM [3] [%] | inhibition at 25 µM [4, 13] [%] | inhibition at 25 µM [5, 14] [%] | inhibition at 25 µM ([6]; 72 h) [%] | inhibition at 25 µM ([7]; 72 h) [%] | inhibition at 25 µM [8] [%] | other results
1 | O=c1cc(N2CCOCC2)oc2c(-c3ccccc3)cccc12 [LY294002, 2-(4-Morpholinyl)-8-Phenyl-4H-1-Benzopyran-4-One] | – | – | – | – | – | – | – | – | – | – | – | – | – | – | IC50 [10]: ~1.4 µM
2 | COc1cccc2c1C(=O)c1c(O)c3c(c(O)c1C2=O)C[C@@](O)(C(=O)CO)C[C@@H]3O[C@H]1C[C@H](N)[C@H](O)[C@H](C)O1 [doxorubicin, reference compound] | – | – | – | – | – | – | – | – | – | – | – | – | – | – | inhibition at 5 µM [11]: 43%; inhibition at 5 µM ([9]; Dox at 5 μM): 74%; Early Apoptosis (MDA-MB-231 cells): 61.15%; Late Apoptosis (MDA-MB-231 cells): 28.29%; Inhibition of Cancer Cell Lines iSLK ([3]; Dox at 5 μM): NIL; inhibition at 5 µM ([4]; Dox at 5 μM, 72 h, read-out: Inhibition of Cancer Cell Lines MDA-MB-231): 73%; inhibition at 5 µM ([5]; Homo sapiens, CCRF-CEM, Dox at 5 μM, 72 h, read-out: Inhibition of Cancer Cell Lines CCRF-CEM): 82%; inhibition at 5 µM ([6]; Dox at 5 μM, 72 h): 54%; inhibition at 5 µM ([7]; Dox at 5 μM, 72 h): 57%; inhibition at 5 µM ([8]; SK-OV-3, Dox at 5 μM): 62%

Further lines, with some results ahead:

Row | IC50 [1] [µM] | IC50 [4] [µM] | IC50 ([5]; Homo sapiens, CCRF-CEM) [µM] | IC50 [6] [µM] | IC50 [7] [µM] | SMILES | IC50 [2, 12] [µM] | inhibition at 25 µM ([2]; Homo sapiens) [%] | IC50 ([2]; normal HEK-293 cells) [µM] | inhibition at 25 µM [3] [%] | inhibition at 25 µM [4, 13] [%] | inhibition at 25 µM [5, 14] [%] | inhibition at 25 µM ([6]; 72 h) [%] | inhibition at 25 µM ([7]; 72 h) [%] | inhibition at 25 µM [8] [%] | other results
3 | 14.8 to 51.1 | 22.2 | 36.5 | 14.8 | 51.1 | COc1cccc2occ(COC(=O)c3c(C)noc3C)c(=O)c12 [Compound 5b, (5-Methoxy-4-oxo-4H-1-benzopyran-3-yl)methyl 3,5-dimethylisoxazole-4-carboxylate] | 102 | 34 | 192 | 23 | 60 | 83 | 75 | 50 | 42 | –
4 | 3.3 to 12.9 | 11 | 3.31 | 12.9 | 12.2 | COc1ccc2occ(COC(=O)c3c(C)noc3C)c(=O)c2c1 [Compound 5c, (6-Methoxy-4-oxo-4H-1-benzopyran-3-yl)methyl 3,5-dimethylisoxazole-4-carboxylate] | 222 | 38 | – | 31 | 70 | 83 | 74 | 81 | 45 | fold potency for CCRF-CEM cell lines ([5]; compared to 5a, 5b, and 5d, from IC50): 3–12 fold
5 | 5.2 to 16.1 | 5.26 | 16.2 | 12.7 | 14.6 | COc1ccc2c(=O)c(COC(=O)c3c(C)noc3C)coc2c1 [Compound 5d, (7-Methoxy-4-oxo-4H-1-benzopyran-3-yl)methyl 3,5-dimethylisoxazole-4-carboxylate] | 192 | 40 | 102 | 42 | 76 | 82 | 75 | 79 | 48 | inhibition at 25 µM ([9]; conjugates at 25 μM): 18%
